Patent US20070117743A1, “New antitumoral compounds” (priority 2003, published 2007)
Read-outs that look alike come from different tables or passages of the source.

Tests used:
Assay type in all cases: cell-based, human
[1] = system: SK-BR-3; assay: SRB colorimetric assay of cell growth and viability, SK-BR-3; conditions: 48 hours exposure
[2] = system: DU-145; assay: SRB colorimetric assay of cell growth and viability, DU-145; conditions: 48 hours exposure
[3] = system: IGROV-ET; assay: SRB colorimetric assay of cell growth and viability, IGROV-ET; conditions: 48 hours exposure; for CC50: read-out: LC50 IGROV-ET
[4] = system: IGROV-1; assay: SRB colorimetric assay of cell growth and viability, IGROV-1; conditions: 48 hours exposure
[5] = system: A-549; assay: SRB colorimetric assay of cell growth and viability, A-549; conditions: 48 hours exposure; for GI50: read-out: GI50 A-549; for CC50: read-out: LC50 A-549
[6] = system: LNCaP; assay: SRB colorimetric assay of cell growth and viability, LNCaP; conditions: 48 hours exposure; for CC50: read-out: LC50 LN-caP
[7] = system: HeLa-APL; assay: SRB colorimetric assay of cell growth and viability, HeLa-APL; conditions: 48 hours exposure; for CC50: read-out: LC50 HELA-APL
[8] = system: LoVo-Dox; assay: SRB colorimetric assay of cell growth and viability, LoVo-Dox; conditions: 48 hours exposure; for CC50: read-out: LC50 LOVO-DOX
Outline: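 Human tumor cells seeded at 5×10^3/well in RPMI 1640 10% FBS, attached 18 hours, then exposed 48 hours to compound (10 to 10^−8 μg/mL). TCA-fixed, SRB-stained, OD 490 nm; triplicates give GI, TGI and LC values.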

[9] = system: HeLa; assay: SRB colorimetric assay of cell growth and viability, HeLa; conditions: 48 hours exposure; for CC50: read-out: LC50 HELA
[10] = system: K-562; assay: SRB colorimetric assay of cell growth and viability, K-562; conditions: 48 hours exposure; for CC50: read-out: LC50 K-562
[11] = system: LoVo; assay: SRB colorimetric assay of cell growth and viability, LoVo; conditions: 48 hours exposure; for CC50: read-out: LC50 LOVO
[12] = system: PANC-1; assay: SRB colorimetric assay of cell growth and viability, PANC-1; conditions: 48 hours exposure; for CC50: read-out: LC50 PANC-1
[13] = system: HT-29; assay: SRB colorimetric assay of cell growth and viability, HT-29; conditions: 48 hours exposure; for GI50: read-out: GI50 HT-29; for CC50: read-out: LC50 HT-29
[14] = system: SK-MEL-28; assay: SRB colorimetric assay of cell growth and viability, SK-MEL-28; conditions: 48 hours exposure; for CC50: read-out: LC50 MEL-28

For `C/C=C1\NC(=O)[C@H](Cc2ccccc2Cl)NC(=O)[C@@H](C(C)C)NC(=O)[C@@H]([C@@H](C)CC)NC(=O)[C@H](NC(=O)[C@H](NC(=O)[C@H](CCCN)NC(=O)[C@H]2CCCN2C(=O)[C@H](NC(=O)[C@@H](NC(=O)[C@@H](NC(=O)[C@H](NC(=O)CCCC(C)C)C(C)C)[C@@H](C)O)C(C)C)C(C)C)[C@@H](C)CC)[C@@H](C)OC(=O)[C@H](C(C)C)NC1=O` [Compound 81, [Phe(2-Cl)^3]-KF], the GI50 ([1]; SK-BR-3) was 0.0612 µM, the LC50 ([1]; SK-BR-3) was 0.664 µM and the “TGI SK-BR-3” value ([1]; SK-BR-3) was 1.18E−07 Molar. For the same compound, the GI50 ([2]; DU-145) was 0.242 µM, the LC50 (concentration causing 50% net cell kill) ([2]; DU-145) was 1.21 µM and the “TGI DU-145” value ([2]; DU-145) was 6.83E−07 Molar. For the same compound, the GI50 ([3]; IGROV-ET) was 0.1 µM, the “TGI IGROV-ET” value ([3]; IGROV-ET) was 2.40E−07 Molar and the CC50 ([3]; IGROV-ET) was 0.639 µM. The GI50 ([4]; IGROV) was 0.0867 µM, the LC50 (concentration causing 50% net cell killing) ([4]; IGROV) was 0.596 µM and the “TGI IGROV” value ([4]; IGROV) was 2.09E−07 Molar. For the same compound, the “TGI A-549” value ([5]; A-549) was 9.04E−07 Molar, the GI50 ([5]; A-549) was 0.457 µM and the CC50 ([5]; A-549) was 1.57 µM. For the same compound, the GI50 ([6]; LN-caP) was 0.0756 µM, the “TGI LN-caP” value ([6]; LN-caP) was 3.87E−07 Molar and the CC50 ([6]; LN-caP) was 1.27 µM. For the same compound, the GI50 ([7]; HELA-APL) was 0.342 µM, the “TGI HELA-APL” value ([7]; HELA-APL) was 7.87E−07 Molar and the CC50 ([7]; HELA-APL) was 1.84 µM. For the same compound, the GI50 ([8]; LOVO-DOX) was 0.0701 µM, the “TGI LOVO-DOX” value ([8]; LOVO-DOX) was 1.20E−07 Molar and the CC50 ([8]; LOVO-DOX) was 0.369 µM. The GI50 ([9]; HELA) was 0.199 µM, the “TGI HELA” value ([9]; HELA) was 6.33E−07 Molar and the CC50 ([9]; HELA) was 1.44 µM. For the same compound, the GI50 ([10]; K-562) was 1.84 µM, the “TGI K-562” value ([10]; K-562) was 1.84E−06 Molar and the CC50 ([10]; K-562) was 1.84 µM. The GI50 ([11]; LOVO) was 0.0892 µM, the “TGI LOVO” value ([11]; LOVO) was 1.72E−07 Molar and the CC50 ([11]; LOVO) was 0.445 µM. For the same compound, the GI50 ([12]; PANC-1) was 1.4 µM, the “TGI PANC-1” value ([12]; PANC-1) was 1.84E−06 Molar and the CC50 ([12]; PANC-1) was 1.84 µM. The “TGI HT-29” value ([13]; HT-29) was 2.23E−07 Molar, the GI50 ([13]; HT-29) was 0.102 µM and the CC50 ([13]; HT-29) was 0.543 µM. For the same compound, the GI50 ([14]; MEL-28) was 0.362 µM, the “TGI MEL-28” value ([14]; MEL-28) was 8.73E−07 Molar and the CC50 ([14]; MEL-28) was 1.68 µM.
With `C/C=C1\NC(=O)[C@H](Cc2ccccc2)NC(=O)[C@@H](C(C)C)NC(=O)[C@@H]([C@@H](C)CC)NC(=O)[C@H](NC(=O)[C@H](NC(=O)[C@H](CCCN)NC(=O)[C@H]2CCCN2C(=O)[C@H](NC(=O)[C@@H](NC(=O)[C@@H](NC(=O)[C@H](NC(=O)CC[C@@H](C)CC)C(C)C)[C@@H](C)OC(=O)C(F)(F)F)C(C)C)C(C)C)[C@@H](C)CC)[C@@H](C)OC(=O)[C@H](C(C)C)NC1=O` [Compound 94, [Thr(OTfa)^12, 4(S)MeHex^14]-Kahalalide F] the GI50 ([1]; SRB) was 0.226 µM, the LC50 ([1]; SRB) was 0.625 µM and the “TGI SK-BR-3” value ([1]; SRB) was 3.75E−07 Molar. For the same compound, the GI50 ([2]; SRB) was 0.718 µM, the LC50 (concentration causing 50% net cell kill) ([2]; SRB) was 3.18 µM and the “TGI DU-145” value ([2]; SRB) was 1.51E−06 Molar. The GI50 ([3]; SRB) was 0.208 µM, the “TGI IGROV-ET” value ([3]; SRB) was 4.00E−07 Molar and the CC50 ([3]; SRB) was 1.58 µM. For the same compound, the GI50 ([4]; SRB) was 0.313 µM, the LC50 (concentration causing 50% net cell killing) ([4]; SRB) was 3.05 µM and the “TGI IGROV” value ([4]; SRB) was 6.11E−07 Molar. For the same compound, the “TGI A-549” value ([5]; SRB) was 2.28E−06 Molar, the GI50 ([5]; SRB) was 1.12 µM and the CC50 ([5]; SRB) was 4.66 µM. The “TGI LN-caP” value ([6]; SRB) was 4.92E−06 Molar, the GI50 ([6]; SRB, read-out: GI50 LN-caP) was 1.65 µM and the CC50 ([6]; SRB) was 6.35 µM. The GI50 ([7]; SRB) was 0.693 µM, the “TGI HELA-APL” value ([7]; SRB) was 1.65E−06 Molar and the CC50 ([7]; SRB) was 3.92 µM. The GI50 ([8]; SRB) was 0.162 µM, the “TGI LOVO-DOX” value ([8]; SRB) was 3.55E−07 Molar and the CC50 ([8]; SRB) was 1.32 µM. For the same compound, the GI50 ([9]; SRB) was 0.413 µM, the “TGI HELA” value ([9]; SRB) was 1.16E−06 Molar and the CC50 ([9]; SRB) was 3.02 µM. The GI50 ([10]; SRB) was 1.84 µM, the “TGI K-562” value ([10]; SRB) was 3.75E−06 Molar and the CC50 ([10]; SRB) was 6.35 µM. The GI50 ([11]; SRB) was 0.168 µM, the “TGI LOVO” value ([11]; SRB) was 3.26E−07 Molar and the CC50 ([11]; SRB) was 0.632 µM. For the same compound, the GI50 ([12]; SRB) was 2.86 µM, the “TGI PANC-1” value ([12]; SRB) was 6.35E−06 Molar and the CC50 ([12]; SRB) was 6.35 µM. For the same compound, the “TGI HT-29” value ([13]; SRB) was 3.43E−07 Molar, the GI50 ([13]; SRB) was 0.163 µM and the CC50 ([13]; SRB) was 1.14 µM. For the same compound, the GI50 ([14]; SRB) was 0.743 µM, the “TGI MEL-28” value ([14]; SRB) was 1.50E−06 Molar and the CC50 ([14]; SRB) was 3.01 µM.
